Each structure is given as a SMILES string.

The test relates to Dirofilaria immitis microfilariae and 4th stage larvae (L4). Kind of test: Heartworm screen Dirofilaria immitis (DiMF and DiL4 assays). Conditions: read-out: D. immitis Act class. It counts as cell-based. The procedure: Heartworm Screen Dirofilaria immitis (D. immitis)
Dirofilaria immitis, Microfilaria (DiMF) Assay. Compounds were dissolved and serially diluted in DMSO. Aliquots were spotted to the empty wells of assay plates. Media and microfilariae of Dirofilaria immitis were added to each well to dilute the test compounds to the desired concentrations. Assay plates were incubated for approximately 72 hours, and the larvae in each well were observed microscopically for drug effect. Microfilariae in each well were assessed subjectively for survival or paralysis, and results were reported as Minimum Effective Dose (MED).
Dirofilaria immitis, L4 stage (DiL4) Assay. Compounds were dissolved and serially diluted in DMSO. Aliquots were spotted to the empty wells of assay plates. Media and 4th stage larvae (L4) of Dirofilaria immitis were added to each well to dilute the test compounds to the desired concentrations. Assay plates were incubated for approximately 72 hours, and the larvae in each well were observed microscopically for drug effect. Larvae in each well were assessed subjectively for survival or paralysis, and results were reported as Minimum Effective Dose (MED).
Active and selective (DiL4 vs. DiMF potency) example compounds were subsequently evaluated in heartworm positive dog studies to correlate the in vitro selectivity profile with in vivo effects on circulating microfilariae.
With `Cc1ccnc(Nc2nc(-c3cc(-c4ccccc4)ccn3)cs2)c1` [Example 101, N-(4-methylpyridin-2-yl)-4-(4-phenylpyridin-2-yl)thiazol-2-amine], the IC50 was less than 200 nM.

For `Cc1ccnc(Nc2nc(-c3cc(OC4COC4)ccn3)cs2)c1` [Example 102, N-(4-methylpyridin-2-yl)-4-(4-(oxetan-3-yloxy)pyridin-2-yl)thiazol-2-amine], the IC50 lay within 500 to 5000 nM.

For the molecule `Cc1ccnc(Nc2nc(-c3ncccc3-c3ccccc3)cs2)c1` [Example 103, N-(4-methylpyridin-2-yl)-4-(3-phenylpyridin-2-yl)thiazol-2-amine], the IC50 is less than 200 nM.

On to `COc1ccnc(Nc2nc(-c3ccccn3)cs2)c1` [Example 121, N-(4-methoxypyridin-2-yl)-4-(pyridin-2-yl)thiazol-2-amine], for which the IC50 lay in the range of 200 to 500 nM.

On to `Cc1cnc(Nc2nc(-c3ccccn3)cs2)c(C)c1` [Example 124, N-(3,5-dimethyl-pyridin-2-yl)-4-(pyridin-2-yl)thiazol-2-amine], for which the IC50 is less than 200 nM.

With `c1ccc(-c2cccnc2Nc2nc(-c3ccccn3)cs2)cc1` [Example 125, N-(3-phenylpyridin-2-yl)-4-(pyridin-2-yl)thiazol-2-amine], the IC50 was 500 to 5000 nM.

For `c1ccc(-c2ccnc(Nc3nc(-c4ccccn4)cs3)c2)cc1` [Example 126, N-(4-phenylpyridin-2-yl)-4-(pyridin-2-yl)thiazol-2-amine], the IC50 is less than 200 nM.

For `CC(C)c1cnc(Nc2nc(-c3ccccn3)cs2)cc1C(F)(F)F` [Example 127, N-(5-isopropyl-4-(trifluoro-methyl)pyridin-2-yl)-4-(pyridin-2-yl)thiazol-2-amine], the IC50 was less than 200 nM.

With `c1ccc(-c2csc(Nc3cc4ccccc4cn3)n2)nc1` [Example 128, N-(isoquinolin-3-yl)-4-(pyridin-2-yl)thiazol-2-amine], the IC50 lay in the range of 200 to 500 nM.

Turning to `Cc1cnc(Nc2nc(-c3ccccn3)cs2)cc1C(F)(F)F` [Example 129, N-(5-methyl-4-(trifluoro-methyl)pyridin-2-yl)-4-(pyridin-2-yl)thiazol-2-amine], the IC50 is less than 200 nM.

For `CCc1cnc(Nc2nc(-c3ccccn3)cs2)cc1C(F)(F)F` [Example 130, N-(5-ethyl-4-(trifluoro-methyl)pyridin-2-yl)-4-(pyridin-2-yl)thiazol-2-amine], the IC50 is less than 200 nM.

`Cc1ccnc(Nc2nc(-c3ccccn3)c(C)s2)c1` [Example 132, 5-methyl-N-(4-methyl-pyridin-2-yl)-4-(pyridin-2-yl)thiazol-2-amine]: the IC50 is 200 to 500 nM.

In the case of `c1ccc(-c2csc(Nc3ccc4cc[nH]c4n3)n2)nc1` [Example 134, 4-(pyridin-2-yl)-N-(1H-pyrrolo [2,3-b]pyridin-6-yl)thiazol-2-amine], the IC50 fell in the range of 500 to 5000 nM.

As to `c1ccc(-c2csc(Nc3cc4[nH]ccc4cn3)n2)nc1` [Example 136, 4-(pyridin-2-yl)-N-(1H-pyrrolo [3,2-c]pyridin-6-yl)thiazol-2-amine], the IC50 was 500 to 5000 nM.

Regarding `c1ccc(-c2csc(Nc3ccc(C4CCCC4)cn3)n2)nc1` [Example 138, N-(5-cyclopentyl-pyridin-2-yl)-4-(pyridin-2-yl)thiazol-2-amine], the IC50 was less than 200 nM.

Turning to `CCCCc1ccnc(Nc2nc(-c3ccccn3)cs2)c1` [Example 167, N-(4-butylpyridin-2-yl)-4-(pyridin-2-yl)thiazol-2-amine], the IC50 was less than 200 nM.

For the molecule `c1ccc(-c2csc(Nc3cc(C4CCC4)ccn3)n2)nc1` [Example 168, N-(4-cyclobutyl-pyridin-2-yl)-4-(pyridin-2-yl)thiazol-2-amine], the IC50 was less than 200 nM.

`c1ccc(-c2csc(Nc3cc(-c4cccnn4)ccn3)n2)nc1` [Example 169, N-(4-(pyridazin-3-yl)pyridin-2-yl)-4-(pyridin-2-yl)thiazol-2-amine]: the IC50 fell in the range of 500 to 5000 nM.

For `O=C(NC1CC1)c1ccnc(Nc2nc(-c3ccccn3)cs2)c1` [Example 170, N-cyclopropyl-2-(4-(pyridin-2-yl)thiazol-2-ylamino) isonicotinamide], the IC50 was 500 to 5000 nM.

For the molecule `CNC(=O)c1ccc(-c2ccnc(Nc3nc(-c4ccccn4)cs3)c2)cc1` [Example 171, N-methyl-4-(2-(4-(pyridin-2-yl)thiazol-2-ylamino)pyridin-4-yl)benzamide], the IC50 fell in the range of 500 to 5000 nM.

In the case of `CCCc1ccnc(Nc2nc(-c3ccccn3)cs2)c1` [Example 172, N-(4-propylpyridin-2-yl)-4-(pyridin-2-yl)thiazol-2-amine], the IC50 was less than 200 nM.

With `c1ccc(-c2csc(Nc3cc(-c4cnccn4)ccn3)n2)nc1` [Example 173, N-(4-(pyrazin-2-yl)pyridin-2-yl)-4-(pyridin-2-yl)thiazol-2-amine], the IC50 is 200 to 500 nM.

Regarding `c1ccc(-c2csc(Nc3cc(-c4ncccn4)ccn3)n2)nc1` [Example 174, 4-(pyridin-2-yl)-N-(4-(pyrimidin-2-yl)pyridin-2-yl)thiazol-2-amine], the IC50 was in the range of 200 to 500 nM.

On to `c1ccc(-c2csc(Nc3cc(-c4cccc5ccccc45)ccn3)n2)nc1` [Example 175, N-(4-(naphthalen-1-yl)pyridin-2-yl)-4-(pyridin-2-yl)thiazol-2-amine], for which the IC50 was less than 200 nM.

With `c1ccc(-c2csc(Nc3cc(C4CC4)ccn3)n2)nc1` [Example 176, N-(4-cyclopropyl-pyridin-2-yl)-4-(pyridin-2-yl)thiazol-2-amine], the IC50 was less than 200 nM.

Consider `Cc1ccnc(Nc2nc(-c3ccccn3)c(CCOC3CCC3)s2)c1` [Example 180, 5-(2-cyclobutoxy-ethyl)-N-(4-methylpyridin-2-yl)-4-(pyridin-2-yl)thiazol-2-amine], for which the IC50 was less than 200 nM.

With `Cc1ccnc(Nc2nc(-c3ccccn3)c(C(C)(C)C)s2)c1` [Example 181, 5-tert-butyl-N-(4-methylpyridin-2-yl)-4-(pyridin-2-yl)thiazol-2-amine], the IC50 was 500 to 5000 nM.

On to `Cc1ccnc(Nc2nc(-c3ccccn3)c(COCC3CCC3)s2)c1` [Example 182, 5-((cyclobutyl-methoxy)methyl)-N-(4-methylpyridin-2-yl)-4-(pyridin-2-yl)thiazol-2-amine], for which the IC50 is less than 200 nM.

As for `Cc1ccnc(Nc2nc(-c3ccccn3)c(CN3CCC3)s2)c1` [Example 183, 5-(azetidin-1-ylmethyl)-N-(4-methylpyridin-2-yl)-4-(pyridin-2-yl)thiazol-2-amine], the IC50 fell in the range of 500 to 5000 nM.

For the molecule `CCc1sc(Nc2cc(C)ccn2)nc1-c1ccccn1` [Example 184, 5-ethyl-N-(4-methylpyridin-2-yl)-4-(pyridin-2-yl)thiazol-2-amine], the IC50 is 200 to 500 nM.

On to `CC(=O)N(C)c1cc(C(F)(F)F)cnc1Nc1nc(-c2ccccn2)cs1` [Example 212, N-methyl-N-(2-(4-(pyridin-2-yl)thiazol-2-ylamino)-5-(trifluoro-methyl)pyridin-3-yl) acetamide], for which the IC50 lay in the range of 500 to 5000 nM.

Take `FC(F)(F)c1ccc(Nc2nc(-c3ccccn3)cs2)nc1` [Example 217, 4-(pyridin-2-yl)-N-(5-(trifluoromethyl)pyridin-2-yl)thiazol-2-amine]: the IC50 was less than 200 nM.

Take `COc1ccc(Nc2nc(-c3ccccn3)cs2)nc1` [Example 218, N-(5-methoxypyridin-2-yl)-4-(pyridin-2-yl)thiazol-2-amine]: the IC50 lay in the range of 500 to 5000 nM.

As for `CC(C)c1ccc(Nc2nc(-c3ccccn3)cs2)nc1` [Example 219, N-(5-isopropylpyridin-2-yl)-4-(pyridin-2-yl)thiazol-2-amine], the IC50 is less than 200 nM.

Regarding `Cc1ccnc(Nc2nc(-c3cc(C)ccn3)cs2)c1` [Example 220, N,4-bis(4-methylpyridin-2-yl)thiazol-2-amine], the IC50 is less than 200 nM.

Turning to `c1ccc(-c2ccc(Nc3nc(-c4ccccn4)cs3)nc2)cc1` [Example 221, N-(5-phenylpyridin-2-yl)-4-(pyridin-2-yl)thiazol-2-amine], the IC50 is less than 200 nM.

For the molecule `Cc1ccnc(-c2csc(Nc3ncccc3C)n2)c1` [Example 222, N-(3-methylpyridin-2-yl)-4-(4-methylpyridin-2-yl)thiazol-2-amine], the IC50 was less than 200 nM.

`Cc1ccnc(Nc2nc(-c3cc(Cl)ccn3)cs2)c1` [Example 223, 4-(4-chloropyridin-2-yl)-N-(4-methylpyridin-2-yl)thiazol-2-amine]: the IC50 was less than 200 nM.

As to `CCOc1ccnc(-c2csc(Nc3cc(C)ccn3)n2)c1` [Example 224, 4-(4-ethoxypyridin-2-yl)-N-(4-methylpyridin-2-yl)thiazol-2-amine], the IC50 was in the range of 200 to 500 nM.

On to `COc1ccc(-c2csc(Nc3cc(C)ccn3)n2)nc1` [Example 225, 4-(5-methoxypyridin-2-yl)-N-(4-methylpyridin-2-yl)thiazol-2-amine], for which the IC50 lay within 200 to 500 nM.

Take `Cc1ccnc(Nc2nc(-c3cccnc3)cs2)c1` [Example 226, N-(4-methylpyridin-2-yl)-4-(pyridin-3-yl)thiazol-2-amine]: the IC50 lay within 200 to 500 nM.

As to `Cc1sc(Nc2ccccn2)nc1-c1ccccn1` [Example 227, 5-methyl-N,4-di(pyridin-2-yl)thiazol-2-amine], the IC50 was less than 200 nM.

(Values after patent publication US20240025891A1 (Celgene Corporation, priority 2020, published 2024).)
